Read-outs that look alike come from different tables or passages of the source. Non-standard residues stand in square brackets, D forms with d. Residues, ends and D or L forms follow the SMILES beside them. *: point of attachment. Dolaproine = CO[C@@H]([C@@H]1CCCN1)[C@@H](C)C(=O)O; Dil = CC[C@H](C)[C@H](NC)[C@@H](CC(=O)O)OC; X1 = C[C@@H](N*)[C@@H](O)c1ccccc1; NMeV = CN[C@H](C(=O)O)C(C)C

From US20250041439A1, “ANTIBODY-DRUG CONJUGATES” (SPIREA LIMITED, priority 2021, published 2025) come the findings set out here.

The test system of test [1] is SK-BR-3 (Her2 High, human breast adenocarcinoma). Put plainly: CellTiter-Glo luminescence viability assay with MMAE ADC. The test is classed as cell-based. The conditions noted are these: SK-BR-3 cells, 96 hours, n = 3; read-out: IC50 (anti-proliferative effect). On the procedure: (§1) The CellTiter-Glo© luminescence viability assay was used to measure the inhibitory effect of the MMAE ADC prepared in Example 3 on cell growth.
(§2) Her2^High SK-BR-3 (human breast adenocarcinoma, ATCC® HTB-30, Manassas, VA, United States) were cultured in McCoy's 5A medium supplemented with 200 U/mL penicillin, 200 μg/mL streptomycin and 20% heat-inactivated fetal bovine serum. Her2^Low JIMT-1 (human breast carcinoma, ACC589, DSMZ, Braunschweig, Germany) were cultured in DMEM GlutaMax® medium supplemented with 200 U/mL penicillin, 200 μg/mL streptomycin and 10% heat-inactivated fetal bovine serum. Her2^Negative NCI-H520 (human lung squamous cell carcinoma, ATCC®-HTB-182) were cultured in RPMI medium supplemented with 200 U/mL penicillin, 200 μg/mL streptomycin and 10% heat-inactivated fetal bovine serum.
(§3) SK-BR-3, JIMT-1 and NCI-H520 cells were seeded in 96-well plates at a density of 5×10^3, 2×10^3 and 2.5×10^3 cells in 100 μL growth medium, respectively, and incubated for 24 hours at 37° C./5% CO2.
(§4) After 96 hours in the presence of ADCs or controls, viability was detected using the CellTiter-Glo® luminescence assay. Assay plates were equilibrated at room temperature for 20 minutes before addition of 100 μL CellTiter-Glo® reagent per well. The plates were then mixed for 3 minutes at 300 rpm to assist cell lysis and incubated for a further 20 minutes at room temperature to stabilise the luminescence signal. Luminescence was recorded using a SpectraMax i3x plate reader with a default integration time of 0.5 s/well.
In general terms: Cellular ATP, detected with luciferase, serves as a proxy for viable cell number.

For test [2], the system named is JIMT-1 (Her2 Low, human breast carcinoma). The description is as above. The note with it: JIMT-1 cells, 96 hours, n = 3; read-out: IC50 (anti-proliferative effect). The test is classed as cell-based. The procedure:
as §1, §2, §3, §4

For test [3], the system named is NCI-H520 (Her2 Negative, human lung squamous cell carcinoma). The description is as above. The format is cell-based. The conditions noted are these: NCI-H520 cells, 96 hours, n = 3; read-out: IC50 (anti-proliferative effect). The procedure: as §1, §2, §3, §4
For test [4], the system named is SK-BR-3 cells (HER2 High, human breast adenocarcinoma). The experiment in a line: CellTiter-Glo luminescence viability assay with SN-38 ADCs. The test is classed as cell-based. The note with it: n = 3, read-out: SK-BR-3 IC50 Mean (±St. Dev.). The procedure: The plates were then mixed for 3 minutes at 300 rpm to assist cell lysis and incubated for a further 20 minutes at room temperature to stabilise the luminescence signal.

Test [5] has as its system NCI-N87 human gastric cancer CDX model. The test is classed as in vivo. The conditions noted are these: 3 mg/kg IV single dose, PG-D42. On the procedure: The objective of this study was to evaluate the in vivo anti-tumour efficacy of the MMAE ADC of Example 3 in the subcutaneous NCI-N87 human gastric cancer CDX model in female BALB/c Nude mice.
• Species: Mus musculus • Strain: BALB/c Nude • Age: 6-8 weeks • Sex: female • Body weight: 18-22 g
The NCI-N87 tumor cells (ATCC, Manassas, VA, cat #CRL-5822) were maintained in vitro as a monolayer culture in RPMI-1640 medium supplemented with 10% fetal bovine serum, 1% Antibiotic-Antimycotic, at 37° C. in an atmosphere of 5% CO2 in air. The tumour cells were routinely subcultured twice weekly by trypsin-EDTA treatment. The cells growing in an exponential growth phase were harvested and counted for tumour inoculation.
Each mouse for efficacy study was inoculated subcutaneously at the right flank with NCI-N87 tumour cells (10×10^6) in 0.2 mL of PBS supplemented with Matrigel (1:1) for tumour development. Treatments were started on day 6 after tumour inoculation when the average tumour size reached approximately 198 mm^3. […]
All the procedures related to animal handling, care and the treatment in the study were performed according to the guidelines approved by the Institutional Animal Care and Use Committee (IACUC) of the CRO following the guidance of the Association for Assessment and Accreditation of Laboratory Animal Care (AAALAC). At the time of routine monitoring, the animals were daily checked for any effects of tumour growth and treatments on normal behaviour such as mobility, food and water consumption (by looking only), body weight gain/loss (body weights were measured twice weekly), eye/hair matting and any other abnormal effect as stated in the protocol. Death and observed clinical signs were recorded on the basis of the numbers of animals within each subset.
The major endpoint was to see if the tumour growth could be delayed or mice could be cured. Tumour size was measured twice weekly in two dimensions using a calliper, and the volume was expressed in mm^3 using the formula: V=0.5a×b^2 where a and b are the long and short diameters of the tumour, respectively. […]

As for `CC[C@H](C)[C@@H]([C@@H](CC(=O)N1CCC[C@H]1[C@H](OC)[C@@H](C)C(=O)N[C@H](C)[C@@H](O)c1ccccc1)OC)N(C)C(=O)[C@@H](NC(=O)[C@@H](NC)C(C)C)C(C)C` [MMAE, monomethyl auristatin E] (H-[NMeV]V[Dil][Dolaproine]-X1), the IC50 in test [1] came out at 0.284 ± 0.138 nM; in test [2], 0.126 ± 0.053 nM; in test [3], 0.334 ± 0.114 nM.
Turning to `CCc1c2c(nc3ccc(O)cc13)-c1cc3c(c(=O)n1C2)COC(=O)[C@]3(O)CC` [SN-38], the IC50 in test [4] (9 h exposure (limited), then further 96 hours) stood at 5.78 ± 2.01 nM; in test [4] (96 h exposure (continuous)), 1.17 ± 0.09 nM.
In the case of T-DM1, in test [5], the T/C came out at 29.37%, the TGI came out at 78.58% and the mean tumour volume amounted to 574 mm^3.

For orientation: IC50 means the concentration needed to halve the response being measured. Broadly, the T/C is the ratio of treated to control.
